In assay [1] the test system is labeled chick fetal bones in culture. Description: Chick fetal bone culture assay, bone forming activity. It is filed as cell-based. The settings on record: 0.4 μM; T/C close to unity = no bone forming activity. The method, then: A slight modification of the method of Raisz (Nature 197: 1015-1016, 1963) was employed. Femur bones are isolated from chick embryos on day 11 post-ovulation and cleared of adhering connective tissue by carefully rotating each bone on dry Whatman (I) filter paper under stereomicroscope. Each femur bone is then placed in a drop of PBS before culturing in BGJb medium (pH 7.3) supplemented with penicillin (0.075 mg/ml), streptomycin (0.05 mg/ml), HEPES (2.382 mg/ml) and BSA (1 mg/ml), transferred to BGJb culture medium containing ^45CaCl2 (0.5 μCi/300 μl culture medium) and incubated for 2 h at 37° C. under 5% CO2 in air. Labeled femur bones are then washed with BGJb medium for 24 h at 37° C. under 5% CO2 in air. […]
Contralateral femur of each fetus serves as corresponding control. […] Radioactivity due to ^45Ca in the spent medium collected at 24, 48 and 96 h of culture and HCl extract at 96 h of culture is quantified by Liquid Scintillation Spectrophotometer in 10 ml of the scintillation fluid (ACS II scintillation cocktail, Amersham Biosciences, UK). […]
Bone forming activity (cpm)=A×(A/B)^1/2 ×Total radioactivity incorporated into bone during 24 h incubation with ^45Ca
where total radioactivity refers to ^45Ca released into the medium during first 24 hrs incubation+^45Ca released into the medium during 24 to 96 hr of incubation+^45Ca remaining in the femur. […]

For assay [2], the system named is bilaterally ovariectomized immature rats. The assay is described as follows: Estrogen agonistic activity (uterine weight gain). It is filed as in vivo, rat. The following applies: 0.01 mg/kg/d, oral, 3 days.
Method: The test agents were administered once daily for 3 consecutive days by the oral route and uterine weight gain over the corresponding vehicle control group was determined. 17α-Ethynylestradiol was used as reference standard.

For the molecule “PTH (aa 1-34): Parathyroid hormone (PTH; aa 1-34), an osteogenic agent, taken as positive control (SVSEIQLMHNLGKHLNSMERVEWLRKKLQDVHNF; Parathyroid hormone; UniProt P01270 32-65, looked up, fragment)”, the “T/C ratio (bone forming activity)” value in assay [1] was 0.44.
Molecule `C#C[C@]1(O)CC[C@H]2[C@@H]3CCc4cc(O)ccc4[C@H]3CC[C@@]21C` [17α-Ethynylestradiol] showed a Uterine weight gain in assay [2] of 514%.

(Values after patent publication US20090221690A1, “Pharmaceutical Composition for the Prevention/Treatment of Bone Disorders and a Process for the Preparation Thereof” (COUNCIL OF SCIENTIFIC AND INDUSTRIAL RESEARCH, priority 2006, published 2009).)
